Results published in patent publication US11390617B2, “Methods of treating non-Hodgkin lymphoma using 2-(2,6-dioxopiperidin-3-yl)-4-((2-fluoro-4-((3-morpholinoazetidin-1-yl)methyl)benzyl)amino)isoindoline-1,3-dione” (Celgene Corporation, priority 2019, dated 2022).

Columns and labels:
[1] = test system: lymphoma cell lines WSU-DLCL2, SU-DHL6 and RL; assay: Macrophage mediated phagocytosis (ADCP) with rituximab; format: cell-based; settings: macrophages treated with Compound 1 10 nM 48 hours, 3 hours
Protocol: Monocyte-derived macrophages (MDM) were generated by plating 8×10^6 commercial monocytes isolated from PBMC in RPMI media supplemented with 10% FBS, 1% L-glutamine and 60 ng/mL macrophage colony-stimulating factor (M-CSF) during 6 to 7 days. Then, MDM were treated with Compound 1 (10 nM) or DMSO control and cultured for an additional 48 hours prior to the assay. Lymphoma cell lines WSU-DLCL2, SU-DHL6 and RL were stained with CellTrace CFSE at 200 nM in PBS for 5 minutes at room temperature and added to the MDM cultures. At the time of co-culture, rituximab or isotype control were added to the media and cells were incubated at 37° C. during 3 hours. At the end of culture, cells were stained with anti-CD14 APC and images were acquired in Operetta. Phagocytosis index was calculated as cells positive for CFSE (green) and CD14 (red).

[2] = test system: RL follicular lymphoma xenograft tumors; assay: RL (follicular lymphoma) xenograft model, alone and in combination with rituximab; format: in vivo, female SCID mice; settings: Compound 1 0.3 mg/kg oral, 5 days on 2 days off for 3 weeks, single agent
Protocol: Female 6- to 8-weeks-old CB17 SCID mice were obtained from Charles River Laboratories. Mice were housed in a barrier facility in micro-isolator cages at 10 animals per cage. Mice were fed with Harlan-Teklad LM-485 Mouse/Rat Sterilizable Diet and autoclaved water ad libitum and maintained on a 12 hours light-dark cycle. Animals were acclimatized to the animal housing facility for a period of 7 days before the beginning of the experiment. All animal studies were performed under protocols approved by Institutional Animal Care and Use Committees.
Suspensions of Compound 1 were pared in aqueous 0.5% Methyl Cellulose, 0.25% Tween 80 and 50 mM Citrate pH 3. […]
Tumor cells were injected subcutaneously in the flank region above the right hind legs of female CB17 SCID mice. […] Tumor volumes were determined before the initiation of treatment and were considered as the starting volumes. Tumors were measured twice a week for the duration of the study. The long and short axes of each tumor were measured using a digital caliper in millimeters. The tumor volumes were calculated using the formula: width^2×length/2. […]
Xenograft data are expressed as mean±SEM. […]
Xenograft study was conducted with female SCID mice bearing RL follicular lymphoma xenograft tumors. […] Tumors were measured twice a week using calipers and tumor volumes were calculated using the formula of W^2×L/2. […]

Structure (SMILES): O=C1CC[C@H](N2C(=O)c3cccc(NCc4ccc(CN5CC(N6CCOCC6)C5)cc4F)c3C2=O)C(=O)N1 [Compound 1, (S)-2-(2,6-dioxopiperidin-3-yl)-4-((2-fluoro-4-((3-morpholinoazetidin-1-yl)methyl)benzyl)amino)isoindoline-1,3-dione]
- phagocytosis of lymphoma cell lines mediated by macrophages (ADCP) [1]: enhances phagocytosis of lymphoma cell lines mediated by macrophages
- tumor volume reduction [2]: 36%
